In patent EP4806891A1 (Kangbaida (Sichuan) Biotechnology Co., Ltd., priority 2023, dated 2025):

The compounds below were run against T1, HEK-Blue-hTLR8 cells (Homo sapiens, UniProt Q9NR97) (assay: HEK-Blue-hTLR8 cell inhibition assay). Settings: R848 3 µM, 16 h, OD 620 nm, read-out: TLR8 IC50.
T1 construct: expressed in transfected cells; host or cells: HEK-Blue-hTLR8 cells (HEK293-derived reporter line)
T1 sequence (Q9NR97 27-1041): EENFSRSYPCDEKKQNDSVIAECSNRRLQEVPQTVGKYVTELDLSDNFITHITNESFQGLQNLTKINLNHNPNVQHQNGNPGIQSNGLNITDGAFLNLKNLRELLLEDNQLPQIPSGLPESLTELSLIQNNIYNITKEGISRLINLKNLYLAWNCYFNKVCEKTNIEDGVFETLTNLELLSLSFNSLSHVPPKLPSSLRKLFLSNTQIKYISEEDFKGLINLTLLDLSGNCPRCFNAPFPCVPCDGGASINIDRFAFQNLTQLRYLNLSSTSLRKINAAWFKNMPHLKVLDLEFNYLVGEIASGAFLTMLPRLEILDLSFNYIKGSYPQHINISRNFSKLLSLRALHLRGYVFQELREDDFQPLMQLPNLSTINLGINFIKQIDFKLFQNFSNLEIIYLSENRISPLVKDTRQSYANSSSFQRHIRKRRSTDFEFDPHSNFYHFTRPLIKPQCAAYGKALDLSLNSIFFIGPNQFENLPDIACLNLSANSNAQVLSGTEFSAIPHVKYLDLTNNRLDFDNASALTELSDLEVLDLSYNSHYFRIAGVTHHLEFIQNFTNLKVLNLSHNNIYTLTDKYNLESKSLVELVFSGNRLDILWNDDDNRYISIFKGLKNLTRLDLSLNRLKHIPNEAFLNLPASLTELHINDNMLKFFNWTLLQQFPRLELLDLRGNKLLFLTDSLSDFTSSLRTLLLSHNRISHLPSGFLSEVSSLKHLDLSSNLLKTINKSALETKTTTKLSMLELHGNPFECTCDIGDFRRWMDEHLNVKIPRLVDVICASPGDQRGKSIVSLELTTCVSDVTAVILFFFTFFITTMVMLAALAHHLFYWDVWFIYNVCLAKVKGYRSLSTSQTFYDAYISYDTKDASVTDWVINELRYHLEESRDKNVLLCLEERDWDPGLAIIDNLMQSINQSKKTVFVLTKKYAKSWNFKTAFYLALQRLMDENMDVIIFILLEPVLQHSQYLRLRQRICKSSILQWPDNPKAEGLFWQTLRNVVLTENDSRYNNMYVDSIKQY
Assay type: cell-based
In short: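 Cells were pre-incubated 4 h, then co-treated 16 h at 37 °C with compound (10 doses, 0.5–10000 nM final) plus R848 (0.8 µM for TLR7, 3 µM for TLR8) or ODN2006 (1 µM, TLR9). Reporter OD620 gave inhibition relative to DMSO blank and agonist-only controls; IC50 came from curve fitting.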

| SMILES | IC50 |
| --- | --- |
| CN(C)CCc1nnc([C@]23CN(c4ccc(C#N)c5ncccc45)C[C@@]2(C(F)(F)F)C3)o1 [Compound 51, 5-((1S,5R)-1-(5-(2-(dimethylamino)ethyl)-1,3,4-oxadiazol-2-yl)-5-(trifluoromethyl)-3-azabicyclo[3.1.0]hexan-3-yl)quinoline-8-carbonitrile] | < 100 nM |
| NC(=O)CN1CCC(c2nnc([C@]34CN(c5ccc(C(F)(F)F)c6ncccc56)C[C@@]3(C(F)(F)F)C4)o2)CC1 [Compound 77, 2-(4-(5-((1S,5R)-5-(trifluoromethyl)-3-(8-(trifluoromethyl)quinolin-5-yl)-3-azabicyclo[3.1.0]hexan-1-yl)-1,3,4-oxadiazol-2-yl)piperidin-1-yl)acetamide] | < 100 nM |
| CN1[C@@H]2CC[C@H]1C[C@H](c1nnc([C@]34CN(c5ccc(C(F)(F)F)c6ncccc56)C[C@@]3(C(F)(F)F)C4)o1)C2 [Compound 79, 2-((1R,3S,5S)-8-methyl-8-azabicyclo[3.2.1]octan-3-yl)-5-((1S,5R)-5-(trifluoromethyl)-3-(8-(trifluoromethyl)quinolin-5-yl)-3-azabicyclo[3.1.0]hexan-1-yl)-1,3,4-oxadiazole] | < 100 nM |
| N#Cc1ccc(N2C[C@]3(c4nnc(C5CCNCC5)o4)C[C@]3(C(F)(F)F)C2)c2c(F)cnn12 [Compound 80, 3-fluoro-4-((1S,5R)-1-(5-(piperidin-4-yl)-1,3,4-oxadiazol-2-yl)-5-(trifluoromethyl)-3-azabicyclo[3.1.0]hexan-3-yl)pyrazolo[1,5-a]pyridine-7-carbonitrile] | < 100 nM |
| NC12CCC(c3nnc([C@]45CN(c6ccc(C(F)(F)F)c7ncccc67)C[C@@]4(C(F)(F)F)C5)o3)(CC1)CC2 [Compound 81, 4-(5-((1S,5R)-5-(trifluoromethyl)-3-(8-(trifluoromethyl)quinolin-5-yl)-3-azabicyclo[3.1.0]hexan-1-yl)-1,3,4-oxadiazol-2-yl)bicyclo[2.2.2]octan-1-amine] | < 100 nM |
| CN1CCC(c2nnc([C@]34CN(c5ccc(C#N)n6ncc(Br)c56)C[C@@]3(C(F)(F)F)C4)o2)CC1 [Compound 83, 3-bromo-4-((1S,5R)-1-(5-(1-methylpiperidin-4-yl)-1,3,4-oxadiazol-2-yl)-5-(trifluoromethyl)-3-azabicyclo[3.1.0]hexan-3-yl)pyrazolo[1,5-a]pyridine-7-carbonitrile] | > 1000 nM |
| CN1CCC(c2nnc([C@]34CN(c5ccc(C#N)n6ncc(Cl)c56)C[C@@]3(C(F)(F)F)C4)o2)CC1 [Compound 84, 3-chloro-4-((1S,5R)-1-(5-(1-methylpiperidin-4-yl)-1,3,4-oxadiazol-2-yl)-5-(trifluoromethyl)-3-azabicyclo[3.1.0]hexan-3-yl)pyrazolo[1,5-a]pyridine-7-carbonitrile] | < 1000 nM |
| CN1CCC(c2nnc([C@]34CN(c5c(Br)cc(C#N)n6ncc(Br)c56)C[C@@]3(C(F)(F)F)C4)o2)CC1 [Compound 85, 3,5-dibromo-4-((1S,5R)-1-(5-(1-methylpiperidin-4-yl)-1,3,4-oxadiazol-2-yl)-5-(trifluoromethyl)-3-azabicyclo[3.1.0]hexan-3-yl)pyrazolo[1,5-a]pyridine-7-carbonitrile] | < 1000 nM |
| CN1CCC(c2nnc([C@]34CN(c5c(Br)cc(C#N)n6nccc56)C[C@@]3(C(F)(F)F)C4)o2)CC1 [Compound 86, 5-bromo-4-((1S,5R)-1-(5-(1-methylpiperidin-4-yl)-1,3,4-oxadiazol-2-yl)-5-(trifluoromethyl)-3-azabicyclo[3.1.0]hexan-3-yl)pyrazolo[1,5-a]pyridine-7-carbonitrile] | < 100 nM |
| CN1CCC(c2nnc([C@]34CN(c5ccc(C(F)(F)F)n6nccc56)C[C@@]3(C(F)(F)F)C4)o2)CC1 [Compound 87, 2-(1-methylpiperidin-4-yl)-5-((1S,5R)-5-(trifluoromethyl)-3-(7-(trifluoromethyl)pyrazolo[1,5-a]pyridin-4-yl)-3-azabicyclo[3.1.0]hexan-1-yl)-1,3,4-oxadiazole] | < 1000 nM |

More lines, now with the values ahead:

| IC50 | SMILES |
| --- | --- |
| < 100 nM | CN1CC(F)(c2nnc([C@]34CN(c5ccc(C#N)c6ncccc56)C[C@@]3(C(F)(F)F)C4)o2)C1 [Compound 49, 5-((1S,5R)-1-(5-(3-fluoro-1-methylazetidin-3-yl)-1,3,4-oxadiazol-2-yl)-5-(trifluoromethyl)-3-azabicyclo[3.1.0]hexan-3-yl)quinoline-8-carbonitrile] |
| < 100 nM | CN1CCC(c2nnc([C@]34CN(c5ccc(C#N)c6ncccc56)C[C@@]3(C(F)(F)F)C4)o2)C(F)C1 (stereo partly drawn) [Compound 50, 5-((1S,5R)-1-(5-(3-fluoro-1-methylpiperidin-4-yl)-1,3,4-oxadiazol-2-yl)-5-(trifluoromethyl)-3-azabicyclo[3.1.0]hexan-3-yl)quinoline-8-carbonitrile] |
| < 100 nM | N#Cc1ccc(N2C[C@]3(c4nnc(C56CCC(N)(CC5)CC6)o4)C[C@]3(C(F)(F)F)C2)c2cccnc12 [Compound 52, 5-((1S,5R)-1-(5-(4-aminobicyclo[2.2.2]octan-1-yl)-1,3,4-oxadiazol-2-yl)-5-(trifluoromethyl)-3-azabicyclo[3.1.0]hexan-3-yl)quinoline-8-carbonitrile] |
| < 100 nM | CN(C)C12CCC(c3nnc([C@]45CN(c6ccc(C#N)c7ncccc67)C[C@@]4(C(F)(F)F)C5)o3)(CC1)CC2 [Compound 53, 5-((1S,5R)-1-(5-(4-(dimethylamino)bicyclo[2.2.2]octan-1-yl)-1,3,4-oxadiazol-2-yl)-5-(trifluoromethyl)-3-azabicyclo[3.1.0]hexan-3-yl)quinoline-8-carbonitrile] |
| < 100 nM | N#Cc1ccc(N2C[C@]3(c4nnc(C56CCC(NC(=O)[C@@H]7COCCN7)(CC5)CC6)o4)C[C@]3(C(F)(F)F)C2)c2cccnc12 [Compound 54, (S)-N-(4-(5-((1S,5R)-3-(8-cyanoquinolin-5-yl)-5-(trifluoromethyl)-3-azabicyclo[3.1.0]hexan-1-yl)-1,3,4-oxadiazol-2-yl)bicyclo[2.2.2]octan-1-yl)morpholine-3-carboxamide] |
| < 100 nM | N#Cc1ccc(N2C[C@]3(c4nnc([C@H]5CN(CC(N)=O)CCO5)o4)C[C@]3(C(F)(F)F)C2)c2cccnc12 [Compound 56, 2-((R)-2-(5-((1S,5R)-3-(8-cyanoquinolin-5-yl)-5-(trifluoromethyl)-3-azabicyclo[3.1.0]hexan-1-yl)-1,3,4-oxadiazol-2-yl)morpholino)acetamide] |
| < 100 nM | N#Cc1ccc(N2C[C@]3(c4nnc(C5(F)CCNCC5)o4)C[C@]3(C(F)(F)F)C2)c2cccnc12 [Compound 60, 5-((1S,5R)-1-(5-(4-fluoropiperidin-4-yl)-1,3,4-oxadiazol-2-yl)-5-(trifluoromethyl)-3-azabicyclo[3.1.0]hexan-3-yl)quinoline-8-carbonitrile] |
| < 100 nM | COc1ccc(N2C[C@]3(c4nnc(C5CCN(C)CC5)o4)C[C@]3(C(F)(F)F)C2)c2cccnc12 [Compound 66, 2-((1S,5R)-3-(8-methoxyquinolin-5-yl)-5-(trifluoromethyl)-3-azabicyclo[3.1.0]hexan-1-yl)-5-(1-methylpiperidin-4-yl)-1,3,4-oxadiazole] |
| < 100 nM | CN1CCC(n2cc([C@]34CN(c5ccc(C#N)c6ncccc56)C[C@@]3(C(F)(F)F)C4)nn2)CC1 [Compound 71, 5-((1S,5R)-1-(1-(1-methylpiperidin-4-yl)-1H-1,2,3-triazol-4-yl)-5-(trifluoromethyl)-3-azabicyclo[3.1.0]hexan-3-yl)quinoline-8-carbonitrile] |
| < 100 nM | FC(F)(F)c1ccc(N2C[C@]3(c4nnc(C5CCNCC5)o4)C[C@]3(C(F)(F)F)C2)c2cccnc12 [Compound 75, 2-(piperidin-4-yl)-5-((1S,5R)-5-(trifluoromethyl)-3-(8-(trifluoromethyl)quinolin-5-yl)-3-azabicyclo[3.1.0]hexan-1-yl)-1,3,4-oxadiazole] |
| < 100 nM | FC(F)(F)c1ccc(N2C[C@]3(c4nnc(C5CCN(CC6CC6)CC5)o4)C[C@]3(C(F)(F)F)C2)c2cccnc12 [Compound 76, 2-(1-(cyclopropylmethyl)piperidin-4-yl)-5-((1S,5R)-5-(trifluoromethyl)-3-(8-(trifluoromethyl)quinolin-5-yl)-3-azabicyclo[3.1.0]hexan-1-yl)-1,3,4-oxadiazole] |
